According to PubChem BioAssay AID248 (DTP/NCI, 2004):
Several values for one entry are separate records, joined by “and”; a condition that tells them apart may be missing. Identical values can stand only once. Inconclusive results and toxic doses are left out. No stated cut-off is given here; in the data, active means T/C of 150% or more; inactive means T/C below 125%.

Tested on: L1210 leukemia ip in BDF1 mice, survival T/C
Assay: NCI In Vivo Anticancer Drug Screen. Data for tumor model L1210 Leukemia (intraperitoneal) in B6D2F1 (BDF1) mice
Conditions: endpoint: mean survival time, higher = longer survival
Outline: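 Transplantable tumor model; survival measured in treated vs vehicle control mice. Value = treated/control.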

[1] = dose: 100.0 mg/kg/injection, schedule: Q01DX001 (ip), vehicle: saline with Tween-80
[2] = dose: 200.0 mg/kg/injection, schedule: Q01DX001 (ip), vehicle: saline with Tween-80
[3] = dose: 400.0 mg/kg/injection, schedule: Q01DX001 (ip), vehicle: saline with Tween-80
[4] = dose: 100.0 mg/kg/injection, schedule: Q01DX001 (ip), vehicle: carboxymethylcellulose (CMC)
[5] = dose: 200.0 mg/kg/injection, schedule: Q01DX001 (ip), vehicle: carboxymethylcellulose (CMC)
[6] = dose: 400.0 mg/kg/injection, schedule: Q01DX001 (ip), vehicle: carboxymethylcellulose (CMC)
[7] = dose: 50.0 mg/kg/injection, schedule: Q01DX009 (ip), vehicle: saline with Tween-80
[8] = dose: 50.0 mg/kg/injection, schedule: Q04DX003 (ip), vehicle: saline with Tween-80
[9] = dose: 100.0 mg/kg/injection, schedule: Q01DX009 (ip), vehicle: saline with Tween-80
[10] = dose: 100.0 mg/kg/injection, schedule: Q04DX003 (ip), vehicle: saline with Tween-80
[11] = dose: 200.0 mg/kg/injection, schedule: Q01DX009 (ip), vehicle: saline with Tween-80
[12] = dose: 200.0 mg/kg/injection, schedule: Q04DX003 (ip), vehicle: saline with Tween-80
[13] = dose: 400.0 mg/kg/injection, schedule: Q01DX009 (ip), vehicle: saline with Tween-80
[14] = dose: 400.0 mg/kg/injection, schedule: Q04DX003 (ip), vehicle: saline with Tween-80
[15] = dose: 50.0 mg/kg/injection, schedule: Q01DX001 (ip), vehicle: saline
[16] = dose: 100.0 mg/kg/injection, schedule: Q01DX001 (ip), vehicle: saline
[17] = dose: 200.0 mg/kg/injection, schedule: Q01DX001 (ip), vehicle: saline
[18] = dose: 400.0 mg/kg/injection, schedule: Q01DX001 (ip), vehicle: saline
[19] = dose: 50.0 mg/kg/injection, schedule: Q01DX001 (ip), vehicle: carboxymethylcellulose (CMC)
[20] = dose: 100.0 mg/kg/injection, schedule: Q04DX003 (ip), vehicle: Klucel (hydroxypropylcellulose) (HPC)
[21] = dose: 200.0 mg/kg/injection, schedule: Q04DX003 (ip), vehicle: Klucel (hydroxypropylcellulose) (HPC)
[22] = dose: 400.0 mg/kg/injection, schedule: Q04DX003 (ip), vehicle: Klucel (hydroxypropylcellulose) (HPC)

Measured: T/C

Cc1ccc(S(=O)(=O)OCC(C)(C)NC(=O)c2ccc([N+](=O)[O-])cc2)cc1
inactive: [1] 91 % of control | [2] 105 % of control | [3] 91 % of control

CCOc1ccc([N+](=O)[O-])cc1C1N(Cc2ccccc2OC)CCCN1Cc1ccccc1OC
inactive: [4] 98 % of control | [5] 98 % of control | [6] 104 % of control

O=C(O)CC(Br)C(=O)c1ccccc1 (stereo not drawn)
inactive: dose: 12.5 mg/kg/injection, schedule: Q01DX009 (ip), vehicle: saline with Tween-80 91 % of control | dose: 12.5 mg/kg/injection, schedule: Q04DX003 (ip), vehicle: saline with Tween-80 96 % of control | dose: 25.0 mg/kg/injection, schedule: Q01DX009 (ip), vehicle: saline with Tween-80 95 % of control | dose: 25.0 mg/kg/injection, schedule: Q04DX003 (ip), vehicle: saline with Tween-80 96 % of control | [7] 95 % of control | [8] 104 % of control

N#CCCNc1ccccc1
inactive: [9] 95 % of control | [10] 103 % of control | [11] 106 % of control | [12] 108 % of control | [13] 86 % of control | [14] 105 % of control

O=C1NC(=O)N2CCSC2(Cc2ccccc2)N1 (stereo not drawn)
inactive: [15] 108 % of control | [16] 96 % of control | [17] 96 % of control | [18] 100 % of control

CC12CCC3c4cc(N)c(O)cc4CCC3C1CCC2=O (stereo not drawn)
inactive: dose: 100.0 mg/kg/injection, schedule: Q04DX002 (ip), vehicle: Klucel (hydroxypropylcellulose) (HPC) 92 % of control | dose: 200.0 mg/kg/injection, schedule: Q04DX002 (ip), vehicle: Klucel (hydroxypropylcellulose) (HPC) 99 % of control | dose: 400.0 mg/kg/injection, schedule: Q04DX002 (ip), vehicle: Klucel (hydroxypropylcellulose) (HPC) 101 % of control

CCCCCCCCCCCCCCC[As](=O)(O)CCCCCCCCCCCCCCC
inactive: [15] 97 % of control | [16] 95 % of control | [17] 95 % of control | [18] 95 % of control

O=C(CCCC(=O)OCC(F)(F)C(F)(F)C(F)(F)C(F)F)OCC(F)(F)C(F)(F)C(F)(F)C(F)F
inactive: [19] 102 % of control | [4] 100 % of control | [5] 100 % of control | [6] 100 % of control

CNNP1(=O)OCC(C)([N+](=O)[O-])CO1 (stereo not drawn)
inactive: [16] 101 % of control | [17] 101 % of control

O=C1CN(CCN2CC(=O)N(c3ccccc3)C2=S)C(=S)N1Cc1ccccc1
inactive: [7] 96 % of control | [9] 90 % of control | [11] 94 % of control

Clc1ccnc2c1ccc1c(Cl)ccnc12
inactive: [19] 88 % of control

Cc1cc(C(C)(C)c2cc(C)c(O)c(C)c2)cc(C)c1O
inactive: [9] 95 % of control | [10] 105 % of control | [11] 93 % of control | [12] 102 % of control | [13] 97 % of control | [14] 96 % of control

[C](#[C][Sn]([c]1ccccc1)([c]1ccccc1)[c]1ccccc1)[Sn]([c]1ccccc1)([c]1ccccc1)[c]1ccccc1
inactive: [20] 94 % of control | dose: 200.0 mg/kg/injection, schedule: Q04DX002 (ip), vehicle: saline 92 % of control | [21] 95 % of control | dose: 400.0 mg/kg/injection, schedule: Q04DX002 (ip), vehicle: saline 92 % of control | [22] 111 % of control

C1=C(c2ccccc2)CCN(C2(c3ccccc3)CCCCC2)C1
inactive: [16] 101 % of control | [17] 93 % of control | [18] 95 % of control

O=[N+]([O-])c1ccc(C[N+]23CCN(CC2)CC3)cc1
inactive: [7] 96 % of control | [8] 106 % of control | [9] 102 % of control | [10] 106 % of control | [12] 101 % of control

N#CC1(Nc2cccc(C(F)(F)F)c2)CCCCC1
inactive: dose: 100.0 mg/kg/injection, schedule: Q01DX009 (ip), vehicle: Klucel (hydroxypropylcellulose) (HPC) 94 % of control | dose: 200.0 mg/kg/injection, schedule: Q01DX009 (ip), vehicle: Klucel (hydroxypropylcellulose) (HPC) 105 % of control | dose: 400.0 mg/kg/injection, schedule: Q01DX009 (ip), vehicle: Klucel (hydroxypropylcellulose) (HPC) 100 % of control

N=C(N)CSSCC(=N)N
inactive: dose: 12.5 mg/kg/injection, schedule: Q04DX003 (ip), vehicle: carboxymethylcellulose (CMC) 92 % of control | dose: 25.0 mg/kg/injection, schedule: Q04DX003 (ip), vehicle: carboxymethylcellulose (CMC) 98 % of control | dose: 50.0 mg/kg/injection, schedule: Q04DX003 (ip), vehicle: carboxymethylcellulose (CMC) 98 % of control

O=[N+]([O-])c1cccc(C=Nc2ccccc2Cl)c1
inactive: dose: 100.0 mg/kg/injection, schedule: Q01DX001 (ip), vehicle: Klucel (hydroxypropylcellulose) (HPC) 101 % of control and 103 % of control | dose: 200.0 mg/kg/injection, schedule: Q01DX001 (ip), vehicle: Klucel (hydroxypropylcellulose) (HPC) 101 % of control | dose: 400.0 mg/kg/injection, schedule: Q01DX001 (ip), vehicle: Klucel (hydroxypropylcellulose) (HPC) 101 % of control and 103 % of control

c1ccc(N2CCSCC2)cc1
inactive: dose: 12.0 mg/kg/injection, schedule: Q01DX Z (ip), vehicle: methylcellulose (MC) 108 % of control | dose: 18.0 mg/kg/injection, schedule: Q01DX Z (ip), vehicle: methylcellulose (MC) 110 % of control | dose: 27.0 mg/kg/injection, schedule: Q01DX Z (ip), vehicle: methylcellulose (MC) 103 % of control | dose: 40.5 mg/kg/injection, schedule: Q01DX Z (ip), vehicle: methylcellulose (MC) 92 % of control

CCCCCC(N)CC(=O)O (stereo not drawn)
inactive: dose: 100.0 mg/kg/injection, schedule: Q01DX009 (ip), vehicle: saline 105 % of control | dose: 100.0 mg/kg/injection, schedule: Q04DX003 (ip), vehicle: saline 102 % of control | dose: 200.0 mg/kg/injection, schedule: Q01DX009 (ip), vehicle: saline 96 % of control | dose: 200.0 mg/kg/injection, schedule: Q04DX003 (ip), vehicle: saline 96 % of control | dose: 400.0 mg/kg/injection, schedule: Q01DX009 (ip), vehicle: saline 96 % of control | dose: 400.0 mg/kg/injection, schedule: Q04DX003 (ip), vehicle: saline 105 % of control

Oc1ccccc1C1SCSCS1
inactive: [20] 97 % of control | [21] 98 % of control | [22] 103 % of control

Nc1nc(SCc2ccccc2)c2ncnnc2n1
inactive: [1] 97 % of control | [2] 103 % of control | [3] 98 % of control

C[C@@H]1CC2=CC(=O)C=C[C@]2(C)[C@H]2CC[C@@]3(C)[C@@H](CC[C@]3(C)O)[C@H]12
inactive: dose: 100.0 mg/kg/injection, schedule: Q01DX001 (sc), vehicle: steriod suspending solution 104 % of control | dose: 200.0 mg/kg/injection, schedule: Q01DX001 (sc), vehicle: steriod suspending solution 106 % of control | dose: 400.0 mg/kg/injection, schedule: Q01DX001 (sc), vehicle: steriod suspending solution 97 % of control

c1ccc(-c2oc3ccc4ccccc4c3c2-c2ccc(OCCN3CCCC3)cc2)cc1
inactive: dose: 10.0 mg/kg/injection, schedule: Q01DX009 (ip), vehicle: Klucel (hydroxypropylcellulose) (HPC) 102 % of control | dose: 20.0 mg/kg/injection, schedule: Q01DX009 (ip), vehicle: Klucel (hydroxypropylcellulose) (HPC) 101 % of control | dose: 40.0 mg/kg/injection, schedule: Q01DX009 (ip), vehicle: Klucel (hydroxypropylcellulose) (HPC) 101 % of control | dose: 80.0 mg/kg/injection, schedule: Q01DX009 (ip), vehicle: Klucel (hydroxypropylcellulose) (HPC) 101 % of control

CCC(=O)C(CCN(C)C)(c1ccccc1)c1ccccn1 (stereo not drawn)
inactive: dose: 44.0 mg/kg/injection, schedule: Q01DX Z (ip), vehicle: saline 98 % of control | dose: 66.0 mg/kg/injection, schedule: Q01DX Z (ip), vehicle: saline 104 % of control

CC(=O)CCC(=O)OC(C)(C)CN
inactive: [7] 102 % of control | [8] 99 % of control | [9] 103 % of control | [10] 87 % of control | [11] 107 % of control | [12] 91 % of control | [13] 103 % of control | [14] 96 % of control

CCOC(=O)C(O)c1ccccc1 (stereo not drawn)
inactive: [10] 98 % of control | [12] 98 % of control | [14] 98 % of control
